Measurements: US20250186448A1 (Mezzion Pharma Co., Ltd., priority 2021, published 2025)
Values joined by “and” are separate entries in the source; they are usually repeats but may differ in a detail not shown here. Identical values can stand only once. “Also recorded” adds a separate entry of the source.

Test system: adolescents with Fontan physiology
Test: FUEL trial: resting data and cardiopulmonary exercise test (CPET), cycle ergometer ramp protocol
Format: in vivo, human
Settings: for Anaerobic threshold VE/VCO2 / Anaerobic threshold oxygen consumption / Anaerobic threshold work / Peak exercise heart rate / Peak exercise minute ventilation / Peak exercise oxygen consumption / Peak exercise oxygen saturation / Peak exercise respiratory rate / Peak exercise work rate / Resting diastolic blood pressure / Resting heart rate / Resting oxygen saturation / Resting systolic blood pressure: mean ± SD; for Resting oxygen saturation, change: p 0.002 vs placebo; for Resting diastolic blood pressure, change: p 0.003 vs placebo; for Anaerobic threshold VE/VCO2, change: p 0.011 vs placebo
Source text: Exercise testing can include assessment of VO2 values during maximal effort or at the ventilator anaerobic threshold (VAT). VO2 max, or maximal oxygen consumption, refers to the maximum amount of oxygen that an individual can utilize during intense exercise. This measurement is generally considered a reliable indicator of cardiovascular fitness and aerobic endurance. The more oxygen a person can use during high level exercise, the more energy that person can produce. This test has been the standard for cardiorespiratory fitness because muscles need oxygen for prolonged (aerobic) exercise; blood carries oxygen to the muscles and the heart must pump adequate amounts of blood to meet the demands of aerobic exercise.
(§1) VO2 is often measured by putting a mask on a subject, and measuring the volume and gas concentrations of inhaled and expired air. This measurement is often used in both clinical settings and research and is considered the most accurate. Testing commonly involves either exercising on a treadmill or riding a cycle ergometer at increasing intensity until exhaustion, and is designed to provide readings at a maximal effort of the subject and/or at the subject's anaerobic threshold.
Exercise testing can include assessment of VO2 values during maximal effort or at ventilator anaerobic threshold (“VAT”). VO2 max (“peak VO2”), or maximal (“peak”) oxygen consumption, refers to the maximum amount of oxygen that an individual can utilize during intense exercise. This measurement is generally considered a reliable indicator of cardiovascular fitness and aerobic endurance. Theoretically, the more oxygen a person can use during exercise, the more energy that person can produce. This test is often used for cardiorespiratory fitness because muscles need oxygen for prolonged (aerobic) exercise; blood carries oxygen to the muscles and the heart must pump adequate amounts of blood to meet the demands of aerobic exercise. However, while peak VO2 may be useful as a surrogate for many cardiovascular disease states, it may not be as relevant an endpoint after the Fontan operation. In this unique physiology, central venous pressure, rather than right ventricular contraction (pumping), is the primary driver of transpulmonary blood flow and, therefore, cardiac output. Gewillig M and Goldberg D J. Failure of the fontan circulation. Heart Fail Clin. 10(1):105-116 (January 2014); Egbe A C, Connolly H M, Miranda W R, Ammash N M, Hagler D J, Veldtman G R and Borlaug B A. Hemodynamics of Fontan Failure: The Role of Pulmonary Vascular Disease. Circ Heart Fail. 10(12): e004515 (September 2017); Gewillig M, Brown S C, Eyskens B, Heying R, Ganame J, Budts W, La Gerche A and Gorenflo M. The Fontan circulation: who controls cardiac output?Interact Cardiovasc Thorac Surg. 10(3):428-433 (March 2010); and Goldberg D J, Avitabile C M, McBride M G and Paridon S M. Exercise capacity in the Fontan circulation. Cardiol Young. 23(6):824-830 (December 2013). As the demand for cardiac output increases with exertion, central venous pressure in the Fontan circulation must rise to meet that demand, but eventually reaches a critical ceiling beyond which it can rise no further. Navaratnam D, Fitzsimmons S, Grocott M, Rossiter H B, Emmanuel Y, Diller G P, Gordon-Walker T, Jack S, Sheron N, Pappachan J, Pratap J N, Vettukattil J J and Veldtman G. Exercise-Induced Systemic Venous Hypertension in the Fontan Circulation. Am J Cardiol. 117(10):1667-1671 (May 15, 2016).
as §1, with “research and has been considered the” for “research and is considered the”, “anaerobic threshold. […]” for “anaerobic threshold.”

[1] = 87.5 mg twice daily, Change baseline to 26-week
[2] = 87.5 mg twice daily, Change baseline to 26-week, listed as udenafil
[3] = 87.5 mg twice daily, baseline to 26-week

SMILES: CCCOc1ccc(S(=O)(=O)NCCC2CCCN2C)cc1-c1nc2c(CCC)nn(C)c2c(=O)[nH]1 (stereo not drawn) [Udenafil, udenafil]
- Multiple measures of exercise performance at the ventilatory anaerobic threshold, udenafil vs placebo (87.5 mg twice daily): statistically significant improvements
- Anaerobic threshold VE/VCO2 (87.5 mg twice daily, 26-week): 33.6 ± 4.8
- Anaerobic threshold oxygen consumption (87.5 mg twice daily, 26-week): 1059 ± 292 mL/min
- Anaerobic threshold work (87.5 mg twice daily, 26-week): 69.2 ± 26 W
- Peak exercise heart rate (87.5 mg twice daily, 26-week): 165 ± 20 bpm
- Peak exercise minute ventilation (87.5 mg twice daily, 26-week): 73 ± 22 L/min
- Peak exercise oxygen consumption (87.5 mg twice daily, 26-week): 1606 ± 452 mL/min
- Peak exercise oxygen saturation (87.5 mg twice daily, 26-week): 89.6 ± 4.9%
- Peak exercise respiratory rate (87.5 mg twice daily, 26-week): 50 ± 12 breaths/min
- Peak exercise work rate (87.5 mg twice daily, 26-week): 124 ± 32 W
- Resting diastolic blood pressure (87.5 mg twice daily, 26-week): 65.3 ± 9.9 mmHg
- Resting heart rate (87.5 mg twice daily, 26-week): 86.6 ± 15.4 bpm
- Resting oxygen saturation (87.5 mg twice daily, 26-week): 93.3 ± 3.5%
- Resting systolic blood pressure (87.5 mg twice daily, 26-week): 110.5 ± 12.0 mmHg
- Anaerobic threshold VE/VCO2 (87.5 mg twice daily, Baseline): 34.3 ± 4.9
- Anaerobic threshold oxygen consumption (87.5 mg twice daily, Baseline): 1039 ± 301 mL/min
- Anaerobic threshold work (87.5 mg twice daily, Baseline): 66.2 ± 26 W
- Peak exercise heart rate (87.5 mg twice daily, Baseline): 165 ± 20 bpm
- Peak exercise minute ventilation (87.5 mg twice daily, Baseline): 71 ± 21 L/min
- Peak exercise oxygen consumption (87.5 mg twice daily, Baseline): 1562 ± 437 mL/min
- Peak exercise oxygen saturation (87.5 mg twice daily, Baseline): 89.2 ± 5.3%
- Peak exercise respiratory rate (87.5 mg twice daily, Baseline): 51 ± 11 breaths/min
- Peak exercise work rate (87.5 mg twice daily, Baseline): 120 ± 32 W
- Resting diastolic blood pressure (87.5 mg twice daily, Baseline): 68.4 ± 9.5 mmHg
- Resting heart rate (87.5 mg twice daily, Baseline): 87.5 ± 15.3 bpm
- Resting oxygen saturation (87.5 mg twice daily, Baseline): 92.8 ± 3.9%
- Resting systolic blood pressure (87.5 mg twice daily, Baseline): 112.3 ± 12.1 mmHg
- Resting oxygen saturation, change [1]: 0.5 ± 2.4%
- Resting oxygen saturation, change [2]: +0.5%
- Resting diastolic blood pressure, change [1]: −2.9 ± 9.7 mmHg
- Resting diastolic blood pressure, change [2]: −2.9 mmHg
- Anaerobic threshold VE/VCO2, change [1]: −0.76 ± 3.6^
- Anaerobic threshold VE/VCO2, change [2]: −0.8
- Anaerobic threshold oxygen consumption (VO2 at VAT), change (87.5 mg twice daily, Change baseline to 26-week, p 0.023 vs placebo): 29.7 ± 177 mL/min
- Anaerobic threshold work (work rate at VAT), change (87.5 mg twice daily, Change baseline to 26-week, p 0.029 vs placebo): 3.5 ± 15 W
- Peak exercise oxygen consumption (peak VO2, VO2 max), change (87.5 mg twice daily, Change baseline to 26-week, p 0.071 vs placebo): 44 ± 245 mL/min
- Resting systolic blood pressure, change (87.5 mg twice daily, Change baseline to 26-week, p 0.18 vs placebo): −1.8 ± 12.2 mmHg
- Resting heart rate, change (87.5 mg twice daily, Change baseline to 26-week, p 0.78 vs placebo): −0.9 ± 12.7 bpm
- Peak exercise work rate, change (87.5 mg twice daily, Change baseline to 26-week, p 0.85 vs placebo): 3.2 ± 14 W
- VE/VCO2 measured at VAT, decreased by, percent [3]: 2.1%
- Work rate at VAT improved by, percent [3]: 5.5% and 5.2%
- Change in resting heart rate, respiratory rate, or systolic blood pressure, udenafil vs placebo (baseline to 26-week): no difference
- Diastolic blood pressure in the udenafil group, in words (baseline to 26-week): small but statistically significant decrease
- Resting oxygen saturation in the udenafil group, in words (baseline to 26-week): small but statistically significant increase
- Oxygen consumption at peak exercise (peak VO2), difference udenafil vs placebo (p=0.071): did not reach statistical significance; also recorded: not associated with a statistically significant improvement
